Experimental data taken from ChEMBL document CHEMBL1157539, “Thousands of chemical starting points for antimalarial lead identification” (Nature, 2010).

System: Plasmodium falciparum
Experiment: GSK_TCMDC: Inhibition of Plasmodium falciparum 3D7 in whole erythrocytes, using parasite LDH activity as an index of growth.
Assay type: functional, organism-based
Conditions: Plasmodium falciparum, 3D7

In order of falling XC50:
1. COc1cc(Cc2cnc(N)nc2N)cc(OCCCc2cc(OCc3ccccc3)no2)c1OC  1870 nM
2. CCN1CCCC1CN(Cc1ccc(-c2ccc(C(F)(F)F)cc2)cc1)C(=O)Cn1c(CCc2cccc(F)c2F)nc(=O)c2ccccc21 (stereo not drawn)  1590 nM
3. O=C(Nc1cccc(CN2CCCN(Cc3ccsc3)CC2)c1)c1ccc(-c2ccccc2)cc1  1340 nM
4. Cc1cc(-c2ccc3c(c2)CCN(CCCOc2ccc4c(c2)CCN4C(=O)/C=C/c2ccccc2Cl)CC3)no1  1230 nM
5. Cc1ccc(CN2CCN(Cc3cccc(NC(=O)c4ccc5ccccc5c4)c3)CC2)cc1C  1220 nM
6. COc1cc2ncnc(NCCc3ccccc3Cl)c2cc1OC  1120 nM
7. Cc1cccc(Nc2nc(C)cc(N3CCCN(CC4CCCCC4)CC3)n2)c1  1120 nM
8. CCCN1CCN(CCCNC(=O)c2cc3c(-c4ccc(Cl)cc4)nn(C)c3s2)CC1  1100 nM
9. COc1cc(Nc2ccnc3cc(-c4ccncc4)ccc23)cc(OC)c1OC  1080 nM
10. COc1ccc(CC(C)NCC(O)c2cccc(Cl)c2F)cc1 (stereo not drawn)  1080 nM
11. CC(C)Oc1ccccc1-c1csc(C(=O)NCC2CCN(Cc3ccc(C(C)(C)C)cc3)C2)c1 (stereo not drawn)  1070 nM
12. c1ccc2[nH]c(-c3ccc(-c4ccc(CNC5CC5)cc4)s3)nc2c1  1050 nM
13. CCCCCCCC1=NN2C(=N)C(=Cc3cc(Br)c(OCc4ccc(F)cc4)c(OCC)c3)C(=O)N=C2S1  1050 nM
14. CC(Sc1nc2sccc2c(=O)n1C)C(=O)Nc1ccc2c(c1)OCO2 (stereo not drawn)  1040 nM
15. C=CCn1cc(C2CCN(CCCCNC(=O)c3sc(-c4ccc(C(F)(F)F)cc4)nc3CO)CC2)c2cc(OC)ccc21  1040 nM
16. Cc1ccc2nc(-c3ccc(C(=O)NC4CCN(Cc5ccccc5)CC4)s3)[nH]c2c1  1010 nM
17. N[C@@H](Cc1cc(I)c(Oc2ccc(O)c(C(=O)O)c2)c(I)c1)C(=O)O  991 nM
18. Cc1cc(N2CCCC2)nc(Nc2ccc(NC(=O)c3ccccc3)cc2)n1  977 nM
19. CN(C)c1ccc(-c2ccc(C(=O)NC3CCN(Cc4ccc(C(C)(C)C)cc4)CC3)s2)cc1  970 nM
20. COc1cccc(C(=O)Nc2ccc(Oc3ccc(Cl)cc3)cc2)c1  956 nM
21. O=C(NC1CCCCC1)N(Cc1ccccc1-c1ccc(CNCCc2ccccc2)cc1)C1CCN(Cc2ccccc2)CC1  930 nM
22. O=C(NCCCCCN1CCC(c2c[nH]c3ccccc23)CC1)Nc1ccc(Br)cc1  925 nM
23. CN(C)c1ccc(CN2CCC(NC(=O)c3ccc(-c4cccc(Cl)c4)s3)CC2)cc1  924 nM
24. COc1ccc(C(=O)Nc2cc(Br)c3c(c2)CNCC3)cc1Br  915 nM
25. O=C(Nc1cccc(CN2CCCN(Cc3ccc(O)cc3)CC2)c1)c1cccc(Cl)c1  908 nM
26. Cc1cc(-c2ccc(S(=O)(=O)Nc3cc4c(cc3OC(C)C)CCN(C)CC4)cc2)ccc1Cl  904 nM
27. CC(C)Cn1c(Sc2ccc(C#N)c([N+](=O)[O-])c2)nnc1-c1ccccc1Cl  901 nM
28. CC(Cc1ccc(OCCN2CCN(c3ccccc3)CC2)cc1)NCC(O)c1cccc(Cl)c1F (stereo not drawn)  873 nM
29. O=C(NCc1ccccc1)C1Cc2c([nH]c3ccc(Br)cc23)C2(CCN(Cc3ccccc3)CC2)N1 (stereo not drawn)  873 nM
30. CC(=O)c1cccc(Nc2nc3ccc(OCc4cc(Cl)cc(Cl)c4)c(C#N)c3[nH]2)c1  869 nM
31. O=C(NCC1CCN(CCN2CCc3ccc4c(c3C2)OCO4)CC1)c1ccc(-c2ccc(C(F)(F)F)cc2)cc1  861 nM
32. CCCNCc1ccc(-c2ccc(CN(CC3CCCO3)C(=O)C3CC(=O)c4ccccc43)cc2)nc1 (stereo not drawn)  860 nM
33. CCCOc1ccc(NC(=O)c2cccs2)cc1Cl  859 nM
34. CN1CCCN(Cc2ccc(-c3ccc(NC(=O)c4cccc(Cl)c4)cc3)cc2)CC1  859 nM
35. Cc1nnsc1C(=O)Nc1ccc(-c2cccc(-c3nc4cc(C(F)(F)F)ccc4[nH]3)c2)cc1  838 nM
36. CCCCCN1CCCC1CNS(=O)(=O)c1ccc(C(=O)Nc2ccc(C(F)(F)F)cc2)cc1 (stereo not drawn)  838 nM
37. COc1ccc(NS(=O)(=O)c2cccc(C(=O)Nc3ccc(C(F)(F)F)cc3)c2)cc1N1CCN(CC(C)C)CC1  838 nM
38. COc1ccccc1CCNc1ncnc2c1[nH]c1ccc(F)cc12  837 nM
39. COc1ccc2nccc([C@@H](O)CN3CCC(NCc4ccc(OC)c(NC(C)=O)c4)CC3)c2c1  835 nM
40. Oc1cc(Nc2ccnc3cc(I)ccc23)c(F)cc1Cl  832 nM
41. Cc1cccc2nc(-c3cccc(-c4ccc(NC(=O)C5CCN(C)CC5)cc4)c3)[nH]c12  829 nM
42. Cc1ccc(C)c2sc(N3CCN(C(=O)c4ccc([N+](=O)[O-])o4)CC3)nc12  819 nM
43. COc1ccc(NC(=O)[C@H](CC(C)C)Nc2cc(C)nc(NCCOc3ccccc3)n2)cc1  800 nM
44. O=S(=O)(Nc1cc2c(cc1O)CCN(C1CCC1)CC2)c1ccc(Oc2ccc(F)cc2)cc1  775 nM
45. Cc1nc(N)nc(N)c1-c1ccc(Cl)cc1  767 nM
46. COCCSc1ccc(CC(C)NCC(O)c2cccc(Cl)c2)cc1 (stereo not drawn)  758 nM
47. Cc1noc(C)c1-c1ccc2c(Nc3ccc(C#N)cc3)c(C(N)=O)cnc2c1  755 nM
48. COc1ccc(Cn2c(Nc3cccc(C(F)(F)F)c3)nc3ccc(C(=O)NCCN4CCCC4)cc32)cc1Cl  753 nM
49. NC1CCN(c2nc(NCCc3ccc(O)cc3)nc(NCc3ccccc3-c3ccc(C(F)(F)F)cc3)n2)CC1  746 nM
50. O=C1NC(=O)C(c2ccc(Cl)cc2)=C1Nc1cccc(S(=O)(=O)C(F)(F)F)c1  744 nM
51. COc1c(CN2CCOCC2)cccc1-c1cc2c(-c3ccc(C(=O)O)c(C(C)C)c3)ccnc2[nH]1  742 nM
52. COc1ccc(Nc2ncc(OC)c(Nc3ccccc3C(N)=O)n2)cc1N1CCN(C)CC1  740 nM
53. O=C(Nc1ccc(Cn2ncc(N3CCCNCC3)c(Cl)c2=O)cc1)Nc1ccc(C(F)(F)F)cc1  731 nM
54. COc1cc2nc(N3CCC(CNC(=O)c4ccc(-c5ccc(C(=O)N(C)C)cc5)c(OCCO)c4)CC3)nc(N)c2cc1OC  730 nM
55. CS(=O)(=O)Nc1ccc2[nH]cc(C3CCN(CC4CCN(C(=O)/C=C/c5ccc(Cl)c(Cl)c5)CC4)CC3)c2c1  716 nM
56. O=C(/C=C/c1ccc(C(F)(F)F)cc1)N1CCC(CCN2CCC(c3c[nH]c4ccccc34)CC2)CC1  716 nM
57. Cc1cnc(NCC2CCCCC2)nc1NCC(=O)Nc1ccccc1  714 nM
58. COc1cccc(CNC(=O)NC2CCN(c3ccnc(Nc4cc(OC)c(OC)c(OC)c4)n3)C2)c1 (stereo not drawn)  713 nM
59. CN(C)C(=O)CC(=O)NCc1cccc(Cl)c1  711 nM
60. NC1CCN(Cc2cccc(-c3ccc(-c4nc5cc(C(F)(F)F)ccc5[nH]4)cc3)c2)C1 (stereo not drawn)  698 nM
61. O=C(NC(c1ccccc1)c1ccccc1)C(c1cc2ccccc2o1)N1CCN(C(c2ccccc2)c2ccccc2)CC1 (stereo not drawn)  679 nM
62. CC(C)N1CCN(C(CN2CCN(CCCOc3ccc(-c4ccccc4)cc3)CC2)c2ccc(F)cc2)CC1 (stereo not drawn)  678 nM
63. COC(=O)c1ccc(-c2ccc(-c3cccnc3)cc2C)cc1  662 nM
64. Cc1cc(Nc2ccncc2)n2nc(C)c(-c3ccccc3Cl)c2n1  654 nM
65. c1ccc2c(c1)ncn2-c1ccnc(Nc2ccncc2)n1  646 nM
66. Fc1ccc(-c2cncc(-c3ccc(F)cc3)n2)cc1  639 nM
67. Cc1cccc2nc(-c3ccc(-c4ccc(CNCCCN5CCCC5=O)cc4)cc3)[nH]c12  632 nM
68. c1ccc(CCNCc2ccc(-c3cccc(-c4nc5ccccc5[nH]4)c3)cc2)nc1  619 nM
69. CC(C)CNCc1ccc(-c2cccc(CN(C(=O)NCCc3ccccc3)C3CCN(Cc4ccccc4)CC3)c2)cc1  579 nM
70. CC[C@H](C)CNC(=O)c1ccnc(-c2ccc(CNC3Cc4ccccc4C3)cc2)c1  569 nM
71. COc1cc2nc(C)nc(Nc3ccc4c(ccn4Cc4ccccc4)c3)c2cc1OC  556 nM
72. CN1CCN(c2cc(-c3cccnc3)nc(-c3ccncc3)n2)CC1  554 nM
73. CN1CCN(c2ccc(-c3cccc(NC(=O)c4cccc([N+](=O)[O-])c4)c3)nn2)CC1  527 nM
74. CCn1cc(C=C2Oc3c(ccc(O)c3CN3CCCCC3)C2=O)c2cc(OC)ccc21  521 nM
75. Cc1ccc(Nc2nc(C)cc(NC3CCN(C)CC3)n2)cc1  497 nM
76. COc1ccccc1NC(=O)CSc1nc2cccnc2n1-c1ccccc1OC  362 nM
77. O=C(/C=C/c1ccccc1Cl)NC1CCC(CN2CCC(c3c[nH]c4ccncc34)CC2)CC1 (stereo not drawn)  334 nM
78. Cc1ccc(C2(CN3CCC(NC(=O)c4n[nH]cc4Cl)CC3)CCCCC2)cc1  321 nM
79. Cn1nc(C(=O)N2CCC(c3[nH]ncc3Cc3ccccc3)CC2)c2ccccc2c1=O  304 nM
80. O=C(Nc1cccc(-c2nn3ccccc3c2-c2ccnc(Nc3ccc(Cc4ccncc4)cc3)n2)c1)c1c(F)cccc1F  296 nM
81. CN(C)CCOc1cc(O)c2c(c1)OC(C)(C)C=C2c1cccs1  290 nM
82. Fc1ccc2[nH]c(-c3cccc(-c4cccc(CNCc5ccccc5)c4)c3)nc2c1  283 nM
83. c1ccc2nc(NCCCCCCCCNc3ccc4ccccc4n3)ccc2c1  272 nM
84. CS(=O)(=O)CCNCc1cccc(-c2ccc3c(Nc4cc(O)c(Cl)cc4F)ccnc3c2)c1  254 nM
85. Cn1nccc1C(=O)NCCNCc1ccc(-c2cccc(-c3nc4cc(F)ccc4[nH]3)c2)cc1  218 nM
86. Clc1ccc(CNc2nc(NCCc3c[nH]cn3)nc(NC3CCCCC3)n2)cc1  209 nM
87. Cc1cccc2nc(-c3cccc(-c4cccc(CNCCNC(=O)c5ccnn5C)c4)c3)[nH]c12  192 nM
88. CCC(C)NC(=O)Nc1ccc(-c2cccc(-c3nc4cccc(C)c4[nH]3)c2)cc1 (stereo not drawn)  189 nM
89. O=C(NC1CCN(c2ccnc3cc(Cl)ccc23)C1)c1ccc(F)cc1 (stereo not drawn)  187 nM
90. CCOc1ccc2c(c1)OC(c1ccccc1)(C(F)(F)F)NC2=O (stereo not drawn)  167 nM
91. COc1ccc2nccc([C@@H](O)CN3CCC(NC(=O)C(c4cc5ccccc5o4)N4CCN(C(c5ccccc5)c5ccccc5)CC4)CC3)c2c1 (stereo partly drawn)  149 nM
92. CCN(CC)CCNc1nc(C=Cc2ccc(Cl)cc2)nc2cc3ccccc3cc12  147 nM
93. CCCC(C)N(Cc1ccc(C(C)(C)C)cc1)C(=O)c1ccc(OC)cc1 (stereo not drawn)  111 nM
94. CC(C)Nc1cc(C(=O)N[C@@H](Cc2ccccc2)[C@H](O)CNC(C)(C)c2cccc(C(F)(F)F)c2)cc(N2CCCCS2(=O)=O)c1  79.4 nM
95. O=C(Nc1cccc(-c2cccc(-c3nc4ccccc4[nH]3)c2)c1)Nc1ccc(F)c(F)c1F  55.1 nM
96. C=CCc1cc(OC)ccc1OCCCOc1c(C)nc(N)nc1N  3.2 nM
97. CC1(C)NC(N)=NC(=N)N1OCCSc1ccc(Cl)c(Cl)c1  3.2 nM
98. CC1(C)NC(N)=NC(=N)N1OCCCOc1cccc2ccccc12  3.2 nM
